Assay results taken from patent US20070281947A1, “Diarylmethylpiperazines As Prophylactic Or Therapeutic Agents For Viral Myocarditis” (priority 2002, published 2007).
Marks after values point to notes of the source that are not given here.

Columns and labels:
Type in all cases: in vivo
EMC virus [1] = test: Effect on histopathological changes in heart muscle in a cardiac insufficiency model induced by EMC viral myocarditis in mice; details: for Heart weight (g) (day 5) / Heart weight/body weight ratio (day 5): DBA/2 mice; for Heart weight (g) (day 5): EMC virus 1 pfu/mouse i.p.; for Heart weight/body weight ratio (day 5): EMC virus
Description: A comparative study was conducted on the effect of cetirizine on histopathological changes in heart muscle in a cardiac insufficiency model induced by EMC viral myocarditis in mice.
28-day-old, male DBA/2 mice were divided into three groups, and EMC virus was inoculated intraperitoneally to all groups at 1 pfu/mouse (day 0) in the same manner as Test Example 1.
(§1) Following inoculation, similar to Example 1, a control group given only distilled water to serve as a control (n=7), a cetirizine low dose group to which cetirizine was administered at a dose of 1 mg/kg/day (n=10), and a cetirizine high dose group to which cetirizine was administered at 10 mg/kg/day (n=7), were forcibly fed once a day using a cannula in the same manner as Test Example 1 for 5 consecutive days.
After five days, the hearts of the animals were removed, stained with hematoxylin-eosin stain after fixing with formalin, and scored for the two parameters of heart muscle cellular necrosis and inflammatory cellular invasion in the manner described below (documents such as Circulation 1999; 100; 1823-1829 can be referred to for further details regarding this formalin fixation, hematoxylin-eosin staining and scoring). The scores for heart muscle cellular necrosis and inflammatory cellular invasion were evaluated independently by two observers and then averaged. Statistical analysis was performed using the one way analysis of variance (ANOVA) and Fisher's protected least significant difference test (documents such as StatVien, SAS Institute Inc., Cary, N.C., U.S.A., 1998 can be referred to for further details regarding these statistical analysis methods).
1+: Lesions in 25% or less of heart
2+: Lesions in more than 25% to 50% of heart
3+: Lesions in more than 50% to 75% of heart
4+: Lesions in more than 75% to 100% of heart
Data consisting of heart weight, body weight, heart weight/body weight ratio, heart muscle cellular necrosis and inflammatory cellular invasion measured in accordance with that described above is summarized in Table 1 below. Furthermore, the previously described survival rate data and data relating to heart muscle interferon production to be described later are also shown in Table 1.

[2] = system: EMC (encephalomyocarditis) virus; test: Effect on survival rate in a cardiac insufficiency model induced by EMC viral myocarditis in mice; details: for Survival rate (day 14): DBA/2 mice, EMC virus 1 pfu/mouse i.p., n = 10, control 10%
Description: A comparative study was conducted on the effect of cetirizine on survival rate in a cardiac insufficiency model induced by EMC (encephalomyocarditis) viral myocarditis in mice.
28-day-old, male DBA/2 mice were divided into three groups, and EMC virus that causes myocarditis was inoculated intraperitoneally to all groups at 1 pfu/mouse (0.1 ml as phosphate-buffered saline (PBS)) (day 0)(pfu means plaque forming unit). The EMC virus used here was acquired from ATCC (American Type Culture Collection, Manassas, Va., U.S.A.), and said EMC virus was used after diluting with PBS.
Following inoculation, a control group given only distilled water to serve as a control (n=10), a cetirizine low dose group to which cetirizine dissolved in distilled water was administered at a dose of 1 mg/kg/day (n=10), and a cetirizine high dose group to which cetirizine dissolved in distilled water was administered at 10 mg/kg/day (n=10), were forcibly fed once a day using a cannula (Wakenyaku Co., Ltd.) for 14 consecutive days.
The survival rates of the above three groups after 14 days were compared according to the Kaplan-Meier method (documents such as StatView, SAS Institute Inc., Cary, N.C., U.S.A. 1988 can be referred to for further details regarding this Kaplan-Meier method).
Data are obtained by analyzing the results obtained above according to the Kaplan-Meier method.

EMC virus [3] = test: Effect on intramyocardial cytokine production (ELISA) in a cardiac insufficiency model induced by EMC viral myocarditis in mice
Description: A comparative study was conducted on the effect of cetirizine on cytokine production within heart muscle in a cardiac insufficiency model induced by EMC viral myocarditis in mice.
28-day-old, male DBA/2 mice were divided into three groups, and EMC virus was inoculated intraperitoneally to all groups at 1 pfu/mouse (day 0) in the same manner as Example 1.
as §1, with “(n=10),” for “(n=7),”, “7” for “5”, “days. […]” for “days.”
The protein concentration of each cytokine was measured by ELISA using a commercially available kit (Circulation, 100: 1102-1108, 1999). […]
The total protein concentration of each supernatant was measured by the bicinchoninic acid (BCA) method followed by calculation of the ratio of cytokine concentration to total protein concentration (J. Am. Coll. Cardiol., 33: 1400-1407, 1999). Each cytokine protein concentration was expressed as pg/mg of total protein or ng/mg of total protein. […]

[4] = 1 mg/kg/day oral, 5 days, n = 10, mean ± SD
[5] = 10 mg/kg/day oral, 5 days, n = 7, mean ± SD
[6] = score 0 to 4+ (share of heart with lesions), two observers averaged, 1 mg/kg/day oral, 5 days, n = 10, mean ± SD

Structure (SMILES): O=C(O)COCCN1CCN(C(c2ccccc2)c2ccc(Cl)cc2)CC1 (racemic) [Cetirizine, (±)-[2-[4-[(4-chlorophenyl)phenylmethyl]-1-piperazinyl]ethoxy]acetic acid]
- Histopathological changes of the heart (in words) (EMC virus [1]; 1 and 10 mg/kg/day, day 5, dose-dependently): trend of diminished inflammatory cell invasion and necrosis
- Heart weight (g) (day 5) (EMC virus [1]; [4]): 0.07 ± 0.008 g
- Heart weight (g) (day 5) (EMC virus [1]; [5]): 0.60 ± 0.006 g
- Heart weight/body weight ratio (day 5) (EMC virus [1]; [4]): 5.4 ± 1.1
- Heart weight/body weight ratio (day 5) (EMC virus [1]; [5]): 5.1 ± 0.8
- Heart muscle cellular necrosis (day 5) (EMC virus [1]; [6]): 1.8 ± 1.0
- Inflammatory cellular invasion (day 5) (EMC virus [1]; [6]): 2.3 ± 0.8
- Effect on survival rate (in words) ([2]; 1 and 10 mg/kg/day, 14 days, Kaplan-Meier, p<0.05): improved concentration-dependently
- Survival rate (day 14) ([2]; 1 mg/kg/day oral, 14 days, 1 mg/kg/day): 40% (4/10)
- Survival rate (day 14) ([2]; 1 mg/kg/day oral, 14 days, listed as cetirizine, 1 mg/kg/day): 40%
- Survival rate (day 14) ([2]; 10 mg/kg/day oral, 14 days, p < 0.05 vs. control, 10 mg/kg/day): 50% (5/10)*
- Survival rate (day 14) ([2]; 10 mg/kg/day oral, 14 days, p < 0.05 vs. control, listed as cetirizine, 10 mg/kg/day): 50%
- Overall efficacy against EMC viral infection / viral myocarditis (in words) ([2]; summary of Examples 1 and 2: improved mortality rate of mice and viral myocarditis): effective against viral infection
- Intramyocardial IFN-γ (in words) (EMC virus [3]; 7 days after virus inoculation, 1 and 10 mg/kg/day): concentration-dependent increase
- Heart muscle interferon-γ (day 7) (EMC virus [3]; ELISA of ventricle homogenate, relative to total protein, 1 mg/kg/day oral, 7 days, n = 10, mean ± SD, p < 0.05 vs. control): 2.2 ± 1.0
